Assay: Plasma pharmacokinetics of BI 187004 after single oral doses (LC–MS/MS)
Conditions: male, human, plasma, po; for concentration at 36 h: planned time 36 h; for concentration at 48 h: planned time 48 h; for concentration at 72 h: planned time 72 h; for concentration at 96 h: planned time 96 h; for concentration at 0.5 h: planned time 0.5 h; for concentration at 1 h: planned time 1 h; for concentration at 1.5 h: planned time 1.5 h; for concentration at 2 h: planned time 2 h; for concentration at 2.5 h: planned time 2.5 h; for concentration at 3 h: planned time 3 h; for concentration at 4 h: planned time 4 h; for concentration at 5 h: planned time 5 h; for concentration at 6 h: planned time 6 h; for concentration at 8 h: planned time 8 h; for concentration at 10 h: planned time 10 h; for concentration at 12 h: planned time 12 h
[1] = 80 mg, BI 187004 plasma concentrations, 80 mg single oral, Max
[2] = 80 mg, BI 187004 plasma concentrations, 80 mg single oral, Mean
[3] = 80 mg, BI 187004 plasma concentrations, 80 mg single oral, Median
[4] = 80 mg, BI 187004 plasma concentrations, 80 mg single oral, Min
[5] = 80 mg, BI 187004 plasma concentrations, 80 mg single oral, gMean
[6] = 160 mg, BI 187004 plasma concentrations, 160 mg single oral, Max
[7] = 160 mg, BI 187004 plasma concentrations, 160 mg single oral, Mean
[8] = 160 mg, BI 187004 plasma concentrations, 160 mg single oral, Median
[9] = 160 mg, BI 187004 plasma concentrations, 160 mg single oral, Min
[10] = 160 mg, BI 187004 plasma concentrations, 160 mg single oral, gMean
[11] = 160 mg, BI 187004 plasma concentrations, 160 mg single oral, individual subjects

## N#Cc1ccc2c(c1)[C@H]1CCCN(C(=O)c3ccc4[nH]cnc4c3)[C@H]1C2 [BI 187004]
80 mg, BI 187004 plasma concentrations, 80 mg single oral, planned time 24 h, Median
  concentration at 24 h: 0.812 µM
80 mg, BI 187004 plasma concentrations, 80 mg single oral, planned time 24 h, Min
  concentration at 24 h: 0.605 µM
80 mg, BI 187004 plasma concentrations, 80 mg single oral, planned time 24 h, gMean
  concentration at 24 h: 0.878 µM
[1]
  concentration at 36 h: 0.678 µM
  concentration at 48 h: 0.596 µM
  concentration at 72 h: 0.234 µM
  concentration at 96 h: 0.11 µM
[2]
  concentration at 36 h: 0.411 µM
  concentration at 48 h: 0.281 µM
  concentration at 72 h: 0.09 µM
  concentration at 96 h: 0.0449 µM
[3]
  concentration at 36 h: 0.372 µM
  concentration at 48 h: 0.23 µM
  concentration at 72 h: 0.0651 µM
  concentration at 96 h: 0.0238 µM
[4]
  concentration at 36 h: 0.223 µM
  concentration at 48 h: 0.134 µM
  concentration at 72 h: 0.0463 µM
  concentration at 96 h: 0.0119 µM
[5]
  concentration at 36 h: 0.383 µM
  concentration at 48 h: 0.247 µM
  concentration at 72 h: 0.0742 µM
  concentration at 96 h: 0.0323 µM
80 mg, C24 gMean (%gCV), 80 mg single oral dose
  concentration at 24 h: 0.878 µM
160 mg
  AUC(0-inf): 111 µM·h
  AUC(0-t): 82.1 µM·h
  Cmax: 8.31 µM
  Tmax: 1 h
  Vd/F: 87.9 L
  half-life: 14.5 h
[6]
  concentration at 0.5 h: 8.78 µM
  concentration at 1 h: 8.74 µM
  concentration at 1.5 h: 8.83 µM
  concentration at 2 h: 8.64 µM
  concentration at 2.5 h: 8.03 µM
  concentration at 3 h: 7.45 µM
  concentration at 4 h: 6.75 µM
  concentration at 5 h: 5.22 µM
  concentration at 6 h: 5.32 µM
  concentration at 8 h: 4.58 µM
  concentration at 10 h: 4.29 µM
  concentration at 12 h: 3.64 µM
[7]
  concentration at 0.5 h: 6.38 µM
  concentration at 1 h: 7.26 µM
  concentration at 1.5 h: 7.28 µM
  concentration at 2 h: 7.07 µM
  concentration at 2.5 h: 6.73 µM
  concentration at 3 h: 5.95 µM
  concentration at 4 h: 5.8 µM
  concentration at 5 h: 4.87 µM
  concentration at 6 h: 4.34 µM
  concentration at 8 h: 3.72 µM
  concentration at 10 h: 3.09 µM
  concentration at 12 h: 2.99 µM
[8]
  concentration at 0.5 h: 6.83 µM
  concentration at 1 h: 7.64 µM
  concentration at 1.5 h: 7.38 µM
  concentration at 2 h: 6.79 µM
  concentration at 2.5 h: 6.55 µM
  concentration at 3 h: 5.8 µM
  concentration at 4 h: 5.79 µM
  concentration at 5 h: 4.9 µM
  concentration at 6 h: 4.23 µM
  concentration at 8 h: 3.74 µM
  concentration at 10 h: 3.04 µM
  concentration at 12 h: 2.91 µM
[9]
  concentration at 0.5 h: 2.52 µM
  concentration at 1 h: 3.92 µM
  concentration at 1.5 h: 5.19 µM
  concentration at 2 h: 6.36 µM
  concentration at 2.5 h: 6.07 µM
  concentration at 3 h: 5.33 µM
  concentration at 4 h: 5.06 µM
  concentration at 5 h: 4.42 µM
  concentration at 6 h: 3.43 µM
  concentration at 8 h: 2.58 µM
  concentration at 10 h: 1.94 µM
  concentration at 12 h: 2.71 µM
[10]
  concentration at 0.5 h: 5.86 µM
  concentration at 1 h: 7.04 µM
  concentration at 1.5 h: 7.19 µM
  concentration at 2 h: 7.03 µM
  concentration at 2.5 h: 6.7 µM
  concentration at 3 h: 5.91 µM
  concentration at 4 h: 5.77 µM
  concentration at 5 h: 4.86 µM
  concentration at 6 h: 4.29 µM
  concentration at 8 h: 3.67 µM
  concentration at 10 h: 3 µM
  concentration at 12 h: 2.97 µM
[11]
  concentration at 1.5 h: 7.48 µM
  concentration at 2 h: 7.23 µM
  concentration at 2.5 h: 6.93 µM
  concentration at 3 h: 5.47 µM
  concentration at 4 h: 5.23 µM
  concentration at 5 h: 4.42 µM
  concentration at 6 h: 4.03 µM
  concentration at 8 h: 3.65 µM
  concentration at 12 h: 2.71 µM
160 mg, BI 187004 plasma concentrations, 160 mg single oral, planned time 24 h, Max
  concentration at 24 h: 2.69 µM
160 mg, BI 187004 plasma concentrations, 160 mg single oral, planned time 24 h, Mean
  concentration at 24 h: 1.68 µM
160 mg, BI 187004 plasma concentrations, 160 mg single oral, planned time 24 h, Median
  concentration at 24 h: 1.49 µM
160 mg, BI 187004 plasma concentrations, 160 mg single oral, planned time 24 h, Min
  concentration at 24 h: 1.36 µM
160 mg, BI 187004 plasma concentrations, 160 mg single oral, planned time 24 h, gMean
  concentration at 24 h: 1.63 µM
160 mg, BI 187004 plasma concentrations, 160 mg single oral, planned time 24 h, individual subjects
  concentration at 24 h: 1.36 µM

— paper PMC8364686, “Safety, tolerability, pharmacokinetics and pharmacodynamics of single oral doses of BI 187004, an inhibitor of 11beta-hydroxysteroid dehydrogenase-1, in healthy male volunteers with overweight or obesity” (Clinical Diabetes and Endocrinology, 2021)
